In patent US11198696B2, “Substituted xanthines as inhibitors of transient receptor potential cation channel subfamily c, member 5 activity” (Boehringer Ingelheim International GmbH, priority 2018, dated 2021):

Each compound was assayed against T1, TRPC5 (Homo sapiens, UniProt Q9UL62) (assay: Assay A: Determination of TRPC5-Inhibition (whole-cell patch clamp)). Conditions: closest prior art compounds of WO2014/143799, TRPC5-expressing HEK293 TREx cells, LaCl3-activated current.
T1 construct: expressed in transfected cells; host or cells: HEK293 TREx cells, inducible TRPC5 expression, induced 20-48 hours
T1 sequence (Q9UL62 1-973): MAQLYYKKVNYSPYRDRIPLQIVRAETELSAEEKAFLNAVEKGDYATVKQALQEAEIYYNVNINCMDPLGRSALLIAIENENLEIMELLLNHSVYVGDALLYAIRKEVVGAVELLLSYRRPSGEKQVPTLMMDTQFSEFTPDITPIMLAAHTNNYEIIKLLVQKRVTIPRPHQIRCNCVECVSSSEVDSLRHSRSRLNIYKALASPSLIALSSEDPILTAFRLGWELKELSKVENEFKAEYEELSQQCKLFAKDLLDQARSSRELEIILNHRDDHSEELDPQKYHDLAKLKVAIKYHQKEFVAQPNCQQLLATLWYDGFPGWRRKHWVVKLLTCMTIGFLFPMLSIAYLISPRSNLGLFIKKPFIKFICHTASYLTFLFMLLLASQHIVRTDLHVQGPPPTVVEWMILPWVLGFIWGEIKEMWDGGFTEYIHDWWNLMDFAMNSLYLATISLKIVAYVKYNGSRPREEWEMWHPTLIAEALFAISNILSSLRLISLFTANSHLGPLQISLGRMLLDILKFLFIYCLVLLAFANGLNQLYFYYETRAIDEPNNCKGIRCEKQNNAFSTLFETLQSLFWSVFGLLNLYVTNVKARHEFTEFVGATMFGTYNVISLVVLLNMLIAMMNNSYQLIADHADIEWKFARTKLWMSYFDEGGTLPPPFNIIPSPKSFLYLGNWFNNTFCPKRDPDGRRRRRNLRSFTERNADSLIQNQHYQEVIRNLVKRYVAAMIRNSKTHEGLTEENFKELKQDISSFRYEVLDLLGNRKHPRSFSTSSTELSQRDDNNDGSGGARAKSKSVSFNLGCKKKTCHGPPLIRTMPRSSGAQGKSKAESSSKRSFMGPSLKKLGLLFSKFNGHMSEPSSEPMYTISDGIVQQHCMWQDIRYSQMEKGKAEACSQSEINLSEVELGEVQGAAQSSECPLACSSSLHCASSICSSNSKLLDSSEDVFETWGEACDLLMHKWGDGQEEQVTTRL
Assay type: cell-based
Text: Assay A: Determination of TRPC5-Inhibition
Patch clamp experiments permit the detection of currents through the TRPC5 channel in a cell line. In normal whole-cell patch clamp recordings, a glass electrode is brought into contact with a single cell and a high-resistance (gigaohm) seal is established with the cell membrane. The membrane is then ruptured to achieve the whole-cell configuration, permitting control of the voltage of the cell membrane and measurement of currents flowing across the membrane using the amplifier attached to the electrode and resulting in the replacement of cytoplasm with the pipette solution. A perfusion system permits control of the extracellular solution, including the addition of blockers and activators of the current. The current can be activated by including 1.4 μM free Ca2+ in the pipette (intracellular) solution, and 80 μM LaCl3 in the extracellular solution.
TRPC5 cells were induced 20-48 hours, removed from growth plates, and replated at low density (to attain good single-cell physical separation) on glass coverslips for measurement. In some cases, cells were grown in low density overnight on glass coverslips. Patch clamp recordings were made in the whole-cell mode with a holding potential of −40 mV. Every 5 seconds, a voltage ramp was applied from −120 to +100 mV, 400 ms in duration. Currents elicited were quantified at −80 mV and +80 mV. The internal solution consisted of 140 mM cesium aspartate, 10 mM HEDTA, 2 mM CaCl2, 2.27 mM MgCl2 and 10 mM HEPES, pH 7.2, with 1,400 nM calculated free Ca2+. The external solution consisted of 150 mM NaCl, 4.5 mM 15 KCl, 1 mM MgCl2, 2 mM CaCl2, 10 mM HEPES, 10 mM glucose, 1 mM EGTA, pH 7.4. Upon addition of LaCl3, TRPC5 current was induced only in TRPC5-expressing cells and not in parental HEK293 TREx cells. Removal of the LaCh stimulus causes most of the current to go away. Potential blockers were tested for ability to block both inward and outward currents in the continued presence of LaCl3.
IC50 of a compound of the invention was estimated by testing the compound 500 nM. […] Compounds blocking 50% or more at 500 nM are retested at multiple concentrations, and the % block is fitted by standard equations to determine IC50 accurately, using a 5/6 point concentration-response experiment.

IC50 [nM]	SMILES
52	COc1ccc(-c2nc3c(c(=O)n(CCCO)c(=O)n3C)n2Cc2ccc(F)cc2)cc1 [Example 465 in WO2014/143799, reference compound]
324	COc1ccc(-c2nc3c(c(=O)n(CCCO)c(=O)n3C)n2Cc2ccccc2)cc1 [Example 441 in WO2014/143799, reference compound]

Same assay, conditions: compounds of the present invention, TRPC5-expressing HEK293 TREx cells, LaCl3-activated current

SMILES	IC50 [nM]
CCn1c(=O)n(CCCO)c(=O)c2c1nc(-c1ccc(OC3CCC3)nc1)n2Cc1ccc(C(F)(F)F)cc1 [Example 54]	1.6
CCn1c(=O)n(CCCO)c(=O)c2c1nc(-c1ccc(OC3CCC3)nc1)n2Cc1ccc(C2CC2)cc1 [Example 49]	1.01
CCn1c(=O)n(CCCO)c(=O)c2c1nc(-c1ccc(OC3CCC3)nc1)n2Cc1ccc(Cl)cc1F [Example 53]	1.59
CCn1c(=O)n(CCCO)c(=O)c2c1nc(-c1ccc(OC3CCC3)nc1C)n2Cc1ccc(Cl)cc1 [Example 36]	0.551
CCn1c(=O)n(CCCO)c(=O)c2c1nc(-c1ccc(OC3CCC3)nc1)n2Cc1ccc(C)cc1 [Example 55]	2.16
C#Cc1ccc(Cn2c(-c3ccc(OC4CCC4)nc3)nc3c2c(=O)n(CCCO)c(=O)n3CC)cc1 [Example 57]	2.66
CCC(C)n1c(=O)n(CCCO)c(=O)c2c1nc(-c1ccc(OC3CCCC3)nc1C)n2Cc1ccccc1 (stereo not shown) [Example 37]	0.603
CCn1c(=O)n(CCCO)c(=O)c2c1nc(-c1ccc(OC3CCC(C(F)(F)F)CC3)nc1C)n2Cc1ccc(F)cc1 (stereo not shown) [Example 35]	0.531
Cc1nc(OC2CCC2)ccc1-c1nc2c(c(=O)n(CCCO)c(=O)n2C(C)C)n1Cc1ccc(F)cc1 [Example 33]	0.477
CCn1c(=O)n(CCCO)c(=O)c2c1nc(-c1cc(F)c(OC3CCC3)nc1C)n2Cc1ccccc1 [Example 39]	0.628
CCn1c(=O)n(CCCO)c(=O)c2c1nc(-c1ccc(OC3CC(C)C3)nc1C)n2Cc1ccccc1 (stereo not shown) [Example 34]	0.485
Cc1nc(OC2CCC2)ccc1-c1nc2c(c(=O)n(CCCO)c(=O)n2C(C)C)n1Cc1ccccc1 [Example 30]	0.426
CCn1c(=O)n(CCCO)c(=O)c2c1nc(-c1ccc(O[C@H]3C[C@H](C)C3)nc1C)n2Cc1ccccc1 [Example 28]	0.917
CCn1c(=O)n(CCCO)c(=O)c2c1nc(-c1ccc(OC3CC(C)(C)C3)nc1C)n2Cc1ccccc1 [Example 32]	0.46
CCn1c(=O)n(CCCO)c(=O)c2c1nc(-c1ccc(OC3CCC3(C)C)nc1C)n2Cc1ccccc1 (stereo not shown) [Example 31]	0.431
CCn1c(=O)n(CCCO)c(=O)c2c1nc(-c1ccc(OC3CCCC3)nc1C)n2Cc1ccc(F)cc1 [Example 44]	0.743
CCC(C)n1c(=O)n(CCCO)c(=O)c2c1nc(-c1ccc(OC3CCC3)nc1C)n2Cc1ccccc1 (stereo not shown) [Example 42]	0.713
CCn1c(=O)n(CCCO)c(=O)c2c1nc(-c1ccc(OC3CCC3)nc1)n2Cc1ccc(Br)cc1 [Example 38]	0.613
CCn1c(=O)n(CCCO)c(=O)c2c1nc(-c1ccc(OC3CCC3)nc1)n2Cc1cc(F)cc(F)c1 [Example 58]	3.67
CCn1c(=O)n(CCCO)c(=O)c2c1nc(-c1ccc(OC3CCC3)nc1C)n2Cc1ccc(F)cc1 [Example 50]	1.16
CCn1c(=O)n(CCCO)c(=O)c2c1nc(-c1ccc(OC3CCC3)nc1F)n2Cc1ccc(F)cc1 [Example 62]	3.37
CCn1c(=O)n(CCCO)c(=O)c2c1nc(-c1ccc(OC3CCC3C)nc1)n2Cc1ccc(Cl)cc1 (stereo not shown) [Example 40]	0.643
CCn1c(=O)n(CCCO)c(=O)c2c1nc(-c1ccc(OC3CCCC3)nc1C)n2Cc1ccccc1 [Example 61]	2.43
CCn1c(=O)n(CCCO)c(=O)c2c1nc(-c1ccc(OC3CCC3)nc1)n2Cc1ccc(F)c(F)c1 [Example 56]	2.64

Further lines, results first:

IC50 [nM]	SMILES
0.13	Cc1nc(OC2CCCC2)ccc1-c1nc2c(c(=O)n(CCCO)c(=O)n2C(C)C)n1Cc1ccccc1 [Example 9]
0.163	CCn1c(=O)n(CCCO)c(=O)c2c1nc(-c1ccc(OC3CCC3(C)C)nc1C)n2Cc1ccc(F)cc1 (stereo not shown) [Example 11]
0.199	CCn1c(=O)n(CCCO)c(=O)c2c1nc(-c1ccc(OC3CC(C)C3)nc1C)n2Cc1ccc(Cl)cc1 (stereo not shown) [Example 17]
0.236	Cc1nc(OC2CCC2C)ccc1-c1nc2c(c(=O)n(CCCO)c(=O)n2C(C)C)n1Cc1ccccc1 (stereo not shown) [Example 19]
< 0.1	Cc1nc(OC2CCC23CCC3)ccc1-c1nc2c(c(=O)n(CCCO)c(=O)n2C(C)C)n1Cc1ccccc1 (stereo not shown) [Example 6]
0.095	Cc1nc(OC2CCCCC2)ccc1-c1nc2c(c(=O)n(CCCO)c(=O)n2C(C)C)n1Cc1ccccc1 [Example 2]
0.184	CCn1c(=O)n(CCCO)c(=O)c2c1nc(-c1ccc(OC3CCC3C)nc1C(F)(F)F)n2Cc1ccc(F)cc1 (stereo not shown) [Example 15]
< 0.1	Cc1nc(OC2CC(C)C2)ccc1-c1nc2c(c(=O)n(CCCO)c(=O)n2C(C)C)n1Cc1ccc(F)cc1 (stereo not shown) [Example 5]
0.249	CCn1c(=O)n(CCCO)c(=O)c2c1nc(-c1ccc(O[C@H]3CCC[C@@H]3C)nc1C)n2Cc1ccc(Cl)cc1 (racemic) [Example 21]
0.312	Cc1nc(OC2CC(F)(F)C2)ccc1-c1nc2c(c(=O)n(CCCO)c(=O)n2C(C)C)n1Cc1ccc(F)cc1 [Example 25]
0.178	CCn1c(=O)n(CCCO)c(=O)c2c1nc(-c1ccc(OC3CCC3C)nc1C)n2Cc1ccc(Br)cc1 (stereo not shown) [Example 14]
0.275	CCn1c(=O)n(CCCO)c(=O)c2c1nc(-c1ccc(OC3CCCC3)nc1C)n2Cc1ccc(Cl)cc1 [Example 23]
0.099	CCn1c(=O)n(CCCO)c(=O)c2c1nc(-c1ccc(OC3CCC3C)nc1C)n2Cc1ccc(Cl)cc1 (stereo not shown) [Example 3]
< 0.1	Cc1nc(OC2CCCC2)ccc1-c1nc2c(c(=O)n(CCCO)c(=O)n2C(C)C)n1Cc1ccc(F)cc1 [Example 4]
0.15	CCn1c(=O)n(CCCO)c(=O)c2c1nc(-c1ccc(OC3CCC3C)nc1C(F)(F)F)n2Cc1ccc(Cl)cc1 (stereo not shown) [Example 10]
< 0.32	Cc1nc(OC2CC(C)C2)ccc1-c1nc2c(c(=O)n(CCCO)c(=O)n2C(C)C)n1Cc1ccccc1 (stereo not shown) [Example 26]
0.246	CCC(C)n1c(=O)n(CCCO)c(=O)c2c1nc(-c1ccc(OC3CC(C)C3)nc1C)n2Cc1ccccc1 (stereo not shown) [Example 20]
0.207	CCn1c(=O)n(CCCO)c(=O)c2c1nc(-c1ccc(OC3CC(C)C3)nc1C)n2Cc1ccc(F)cc1 (stereo not shown) [Example 18]
< 0.032	Cc1nc(OC2CCC2C)ccc1-c1nc2c(c(=O)n(CCCO)c(=O)n2C(C)C)n1Cc1ccc(F)cc1 (stereo not shown) [Example 1]
0.403	CCn1c(=O)n(CCCO)c(=O)c2c1nc(-c1ccc(OC3CCCCC3)nc1C)n2Cc1ccc(F)cc1 [Example 29]
0.104	CCn1c(=O)n(CCCO)c(=O)c2c1nc(-c1ccc(OC3CC4CCC3C4)nc1C)n2Cc1ccc(F)cc1 (stereo not shown) [Example 7]
0.281	CCn1c(=O)n(CCCO)c(=O)c2c1nc(-c1ccc(OC3CC(C)(C)C3)nc1C)n2Cc1ccc(F)cc1 [Example 24]
0.174	CCn1c(=O)n(CCCO)c(=O)c2c1nc(-c1cc(F)c(OC3CCC3)nc1C)n2Cc1ccc(F)cc1 [Example 13]
